Experimental data: ChEMBL document CHEMBL1649573, “Protein kinase G is required for intrinsic antibiotic resistance in mycobacteria” (2009)
In brackets after ≈: the same amount, converted by molar mass. Activity calls are given as the source filed them. The rule behind the calls is not given here.

Columns and labels:
[1] = test system: Mycolicibacterium smegmatis; assay: Antimycobacterial activity against Mycobacterium smegmatis MC2 155 by Etest method; type: functional; conditions: str. MC2 155
[2] = test system: Mycolicibacterium smegmatis; assay: Antimycobacterial activity against Mycobacterium smegmatis MAR4 harboring disrupted PknGMsm gene by Etest method; type: functional
[3] = test system: Mycolicibacterium smegmatis; assay: Antimycobacterial activity against Mycobacterium smegmatis MC2 155 harboring PknG K181M mutant gene by Etest method; type: functional; conditions: str. MC2 155
[4] = test system: Mycolicibacterium smegmatis; assay: Antimycobacterial activity against PknGMsm-deficient Mycobacterium smegmatis by Etest method; type: functional
[5] = test system: Mycolicibacterium smegmatis; assay: Antimycobacterial activity against PknGMsm-deficient Mycobacterium smegmatis harboring PknG K181M mutant gene by Etest method; type: functional
[6] = test system: Mycolicibacterium smegmatis; assay: Antimycobacterial activity against Mycobacterium smegmatis harboring PknG Msm gene by Etest method; type: functional
[7] = test system: Mycobacterium tuberculosis; assay: Antimycobacterial activity against Mycobacterium tuberculosis H37Rv at 100 mg/l after 7 days by microscopy; type: functional, organism-based
[8] = test system: Mycobacterium tuberculosis; assay: Antimycobacterial activity against PknGMtb-deficient Mycobacterium tuberculosis H37Rv at 100 mg/l after 7 days by microscopy; type: functional, organism-based

CC[C@H]1OC(=O)[C@H](C)[C@@H](O[C@H]2C[C@@](C)(OC)[C@@H](O)[C@H](C)O2)[C@H](C)[C@@H](O[C@@H]2O[C@H](C)C[C@H](N(C)C)[C@H]2O)[C@](C)(O)C[C@@H](C)C(=O)[C@H](C)[C@@H](O)[C@]1(C)O [ERYTHROMYCIN]
MIC [1]: 32 µg/mL (≈ 43.6 µM) | MIC [2]: 4 µg/mL (≈ 5.45 µM) | MIC [3]: 12 µg/mL (≈ 16.4 µM) | MIC [4]: 3 µg/mL (≈ 4.09 µM) | MIC [5]: 3 µg/mL (≈ 4.09 µM) | MIC [6]: 32 µg/mL (≈ 43.6 µM) | Activity [7]: inactive | Activity [8]: Active

CC[C@@H](CO)NCCN[C@@H](CC)CO [ETHAMBUTOL]
MIC [1]: 0.25 µg/mL (≈ 1.22 µM) | MIC [2]: 0.064 µg/mL (≈ 0.313 µM) | MIC [3]: 0.064 µg/mL (≈ 0.313 µM) | MIC [4]: 0.064 µg/mL (≈ 0.313 µM) | MIC [6]: 0.25 µg/mL (≈ 1.22 µM)

C[C@@H](O)[C@H]1C(=O)N2C(C(=O)O)=C(SCCNC=N)C[C@H]12 [IMIPENEM ANHYDROUS]
MIC [1]: 6 µg/mL (≈ 20 µM) | MIC [2]: 0.38 µg/mL (≈ 1.27 µM) | MIC [3]: 1 µg/mL (≈ 3.34 µM) | MIC [4]: 0.38 µg/mL (≈ 1.27 µM) | MIC [5]: 0.38 µg/mL (≈ 1.27 µM) | MIC [6]: 6 µg/mL (≈ 20 µM)

CO[C@H]1/C=C/O[C@@]2(C)Oc3c(C)c(O)c4c(O)c(c(/C=N/N5CCN(C)CC5)c(O)c4c3C2=O)NC(=O)/C(C)=C\C=C\[C@H](C)[C@H](O)[C@@H](C)[C@@H](O)[C@@H](C)[C@H](OC(C)=O)[C@@H]1C [RIFAMPIN]
MIC [1]: > 32 µg/mL | MIC [2]: 4 µg/mL (≈ 4.86 µM) | MIC [3]: 4 µg/mL (≈ 4.86 µM) | MIC [4]: 4 µg/mL (≈ 4.86 µM) | MIC [6]: > 32 µg/mL

CN[C@H](CC(C)C)C(=O)N[C@H]1C(=O)N[C@@H](CC(N)=O)C(=O)N[C@H]2C(=O)N[C@H]3C(=O)N[C@H](C(=O)N[C@H](C(=O)O)c4cc(O)cc(O)c4-c4cc3ccc4O)[C@H](O)c3ccc(c(Cl)c3)Oc3cc2cc(c3O[C@@H]2O[C@H](CO)[C@@H](O)[C@H](O)[C@H]2O[C@H]2C[C@](C)(N)[C@H](O)[C@H](C)O2)Oc2ccc(cc2Cl)[C@H]1O [VANCOMYCIN]
MIC [1]: 48 µg/mL (≈ 33.1 µM) | MIC [2]: 4 µg/mL (≈ 2.76 µM) | MIC [3]: 16 µg/mL (≈ 11 µM) | MIC [4]: 4 µg/mL (≈ 2.76 µM) | MIC [5]: 4 µg/mL (≈ 2.76 µM) | MIC [6]: 48 µg/mL (≈ 33.1 µM)
